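Interpolation was linear, between the two tested concentrations surrounding the appropriate level; five concentrations were tested over 48 hours in 96-well plates. TGI: total growth inhibition.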
Tests used:
Assay in all cases: NCI anticancer screen, dose series, 48 h
[1] = tested on: SW-620 colon
[2] = tested on: U251 CNS
[3] = tested on: DMS 273 small cell lung
[4] = tested on: SN12C renal
[5] = tested on: HCT-15 colon
[6] = tested on: 786-0 renal
[7] = tested on: DLD-1 colon
[8] = tested on: COLO 205 colon
[9] = tested on: OVCAR-3 ovarian
[10] = tested on: LXFL 529 NSCLC
[11] = tested on: A498 renal
[12] = tested on: UACC-62 melanoma
[13] = tested on: A549 NSCLC
[14] = tested on: K-562 leukemia
[15] = tested on: SF-268 CNS
[16] = tested on: M14 melanoma
[17] = tested on: CCRF-CEM leukemia
[18] = tested on: HL-60(TB) leukemia
[19] = tested on: HCC-2998 colon
[20] = tested on: SK-MEL-28 melanoma
[21] = tested on: HCT-116 colon
[22] = tested on: SK-MEL-2 melanoma
[23] = tested on: SK-OV-3 ovarian
[24] = tested on: LOX IMVI melanoma
[25] = tested on: UACC-257 melanoma
[26] = tested on: KM20L2 colon
[27] = tested on: UO-31 renal
[28] = tested on: HOP-92 NSCLC
[29] = tested on: SR leukemia
[30] = tested on: SK-MEL-5 melanoma
[31] = tested on: EKVX NSCLC
[32] = tested on: HT29 colon
[33] = tested on: NCI-H460 lung
[34] = tested on: RPMI-8226 leukemia
[35] = tested on: NCI-H226 lung
[36] = tested on: SNB-75 CNS
[37] = tested on: MOLT-4 leukemia
[38] = tested on: OVCAR-8 ovarian
[39] = tested on: MALME-3M melanoma
[40] = tested on: CAKI-1 renal
[41] = tested on: KM12 colon
[42] = tested on: SF-295 CNS
[43] = tested on: IGROV1 ovarian
[44] = tested on: SF-539 CNS
[45] = tested on: TK-10 renal
[46] = tested on: NCI-H23 lung
[47] = tested on: HOP-62 NSCLC
[48] = tested on: ACHN renal
[49] = tested on: NCI-H522 lung
[50] = tested on: OVCAR-4 ovarian
[51] = tested on: OVCAR-5 ovarian
[52] = tested on: NCI/ADR-RES ovarian
[53] = tested on: HS 578T breast
[54] = tested on: PC-3 prostate
[55] = tested on: MDA-MB-435
[56] = tested on: RXF 393 renal
[57] = tested on: DU-145 prostate
[58] = tested on: MCF7 breast
[59] = tested on: T-47D breast
[60] = tested on: MDA-MB-231 breast
[61] = tested on: BT-549 breast
[62] = tested on: SNB-19 CNS
[63] = tested on: MDA-N

`O=S(=O)([O-])[O-].[Cl-].[NH2-].[NH2-].[NH2-].[NH2-].[Ru+3].c1ccncc1` was tested, and the TGI [1] was greater than 100 µM, the TGI [2] was greater than 100 µM and the TGI [3] was greater than 100 µM. The TGI [4] was greater than 100 µM, the TGI [5] was greater than 100 µM and the TGI [6] was greater than 100 µM. The TGI [7] was greater than 100 µM, the TGI [8] was greater than 100 µM and the TGI [9] was greater than 100 µM. It also gave a TGI [10] greater than 100 µM, a TGI [11] greater than 100 µM and a TGI [12] greater than 100 µM. The TGI [13] was greater than 100 µM, the TGI [14] was greater than 100 µM and the TGI [15] was greater than 100 µM. The TGI [16] was greater than 100 µM, the TGI [17] was greater than 100 µM and the TGI [18] was greater than 100 µM. It also gave a TGI [19] greater than 100 µM, a TGI [20] greater than 100 µM and a TGI [21] greater than 100 µM. For the same compound, the TGI [22] was greater than 100 µM, the TGI [23] was greater than 100 µM and the TGI [24] was greater than 100 µM. For the same compound, the TGI [25] was greater than 100 µM, the TGI [26] was greater than 100 µM and the TGI [27] was greater than 100 µM. The TGI [28] was greater than 100 µM, the TGI [29] was greater than 100 µM and the TGI [30] was greater than 100 µM. It also gave a TGI [31] greater than 100 µM, a TGI [32] greater than 100 µM and a TGI [33] greater than 100 µM. It also gave a TGI [34] greater than 100 µM, a TGI [35] greater than 100 µM and a TGI [36] greater than 100 µM. The TGI [37] was greater than 100 µM, the TGI [38] was greater than 100 µM and the TGI [39] was greater than 100 µM. The TGI [40] was greater than 100 µM, the TGI [41] was greater than 100 µM and the TGI [42] was greater than 100 µM. It also gave a TGI [43] greater than 100 µM, a TGI [44] greater than 100 µM and a TGI [45] greater than 100 µM. For the same compound, the TGI [46] was greater than 100 µM, the TGI [47] was greater than 100 µM and the TGI [48] was greater than 100 µM. For the same compound, the TGI [49] was greater than 100 µM, the TGI [50] was greater than 100 µM and the TGI [51] was greater than 100 µM.

`CC(C)(C)c1cc(OCc2nnc3sc(=S)[nH]n23)c(Cl)cc1OCc1nnc2sc(=S)[nH]n12` showed a TGI [1] greater than 100 µM, a TGI [2] of 65.2 µM and a TGI [4] greater than 100 µM. For the same compound, the TGI [52] was greater than 100 µM, the TGI [5] was greater than 100 µM and the TGI [6] was 95 µM. For the same compound, the TGI [8] was greater than 100 µM, the TGI [9] was 63.6 µM and the TGI [11] was 88.7 µM. For the same compound, the TGI [12] was 32.6 µM, the TGI [13] was greater than 100 µM and the TGI [53] was greater than 100 µM. For the same compound, the TGI [14] was greater than 100 µM, the TGI [15] was greater than 100 µM and the TGI [16] was 75.7 µM. For the same compound, the TGI [17] was 37.3 µM, the TGI [18] was 55.5 µM and the TGI [54] was greater than 100 µM. The TGI [55] was 55.1 µM, the TGI [19] was 65.2 µM and the TGI [56] was 69.1 µM. The TGI [20] was 58.4 µM, the TGI [21] was 50.6 µM and the TGI [22] was 58.9 µM. It also gave a TGI [23] greater than 100 µM, a TGI [24] of 34.2 µM and a TGI [25] of 83.8 µM. The TGI [27] was 82.4 µM, the TGI [28] was 53.3 µM and the TGI [29] was 50.8 µM. For the same compound, the TGI [30] was 29.5 µM, the TGI [31] was 85.4 µM and the TGI [32] was greater than 100 µM. The TGI [33] was 81.8 µM, the TGI [34] was greater than 100 µM and the TGI [35] was greater than 100 µM. The TGI [57] was 94 µM, the TGI [58] was 31.6 µM and the TGI [36] was 92 µM. The TGI [37] was greater than 100 µM, the TGI [59] was 57.7 µM and the TGI [38] was greater than 100 µM. For the same compound, the TGI [39] was 46.9 µM, the TGI [40] was 80.5 µM and the TGI [60] was greater than 100 µM. The TGI [41] was 68.7 µM, the TGI [61] was greater than 100 µM and the TGI [42] was greater than 100 µM. For the same compound, the TGI [43] was 66.4 µM, the TGI [44] was greater than 100 µM and the TGI [62] was greater than 100 µM. For the same compound, the TGI [45] was 99.8 µM, the TGI [46] was 95.5 µM and the TGI [47] was greater than 100 µM. It also gave a TGI [48] of 76.8 µM, a TGI [63] of 40.6 µM and a TGI [49] of 37.8 µM. It also gave a TGI [50] of 80.6 µM and a TGI [51] greater than 100 µM.
